Measured values: patent US20100028889A1, “COMPANION DIAGNOSTIC ASSAYS FOR CANCER THERAPY” (ABBOTT LABORATORIES, priority 2006, published 2010)
pEC50: −log10 of the molar value. Where two headings read alike, the source gives them in different places.

Columns and labels:
Type in all cases: cell-based, human
SuPB15 = test: cell cytotoxicity EC50, CellTiter Glo, leukemia/lymphoma cell line
Experimental: (§1) The SCLC and leukemia/lymphoma cell lines listed below were obtained from the American Type Culture Collection (Manassas, Va.), Deutsche Sammlung von Mikroorganismen und Zellkulturen (DSMZ, Braunsweig, Germany), or were the generous gift from Dr. Louis Staudt (National Cancer Institute) and were cultured as described in Tse, C., Shoemaker, A. R., Adickes, J., et al., “ABT-263: a potent and orally bioavailable Bcl-2 family inhibitor,” Cancer Res 2008; 68: 3421-3428; and Tahir, S. K., Yang, X., Anderson, M. G., et al., “Influence of Bcl-2 family members on the cellular response of small-cell lung cancer cell lines to ABT-737,” Cancer Res 2007; 67: 1176-1183.
(§2) Cells were treated at 10,000 or 50,000 cells per well for adherent or suspension cells, respectively, in 96-well microtiter plates in the presence of 10% human serum for 48 hours with or without ABT-263, in a humidified chamber with 5% CO2. ABT-263 was synthesized as previously described in Tse, C., Shoemaker, A. R., Adickes, J., et al., “ABT-263: a potent and orally bioavailable Bcl-2 family inhibitor,” Cancer Res 2008; 68: 3421-3428; and Oltersdorf, T., Elmore, S. W., Shoemaker, A. R., et al., “An inhibitor of Bcl-2 family proteins induces regression of solid tumours,” Nature 2005; 435: 677-681, and cell cytotoxicity EC50 values were assessed using CellTiter Glo (Promega, Madison Wis.).

RPMI 8226 = test: as above
Experimental: as §1, §2

NCI-H196 = test: cell cytotoxicity EC50, CellTiter Glo, SCLC cell line
Experimental: as §1, §2

NCI-H740 = test: as above
Experimental: as §1, §2

NCI-H2107 = test: as above
Experimental: as §1, §2

DMS 53 = test: as above
Experimental: as §1, §2

NCI-H209 = test: as above
Experimental: as §1, §2

NCI-H1688 = test: as above
Experimental: as §1, §2

NCI-H146 = test: as above
Experimental: as §1, §2

NCI-H128 = test: as above
Experimental: as §1, §2

NCI-H446 = test: as above
Experimental: as §1, §2

NCI-H526 = test: as above
Experimental: as §1, §2

NCI-1417 = test: as above
Experimental: as §1, §2

SW 1271 = test: as above
Experimental: as §1, §2

NCI-H345 = test: as above
Experimental: as §1, §2

NCI-H889 = test: as above
Experimental: as §1, §2

DMS 114 = test: as above
Experimental: as §1, §2

NCI-211 = test: as above
Experimental: as §1, §2

SCLC cell lines = test: categorisation of the SCLC cell line panel by EC50; settings: EC50 less than or equal to 4.1 μM
Experimental: as §2
o divide the training set cell lines into sensitive and resistant categories, a bivariate fit curve was generated for the ABT-263 EC50 versus rank and fitted with a smoothing spline (lambda=1), and the maximum increase in the slope was approximately 5 μM for both sets. […]
Division of cell lines into sensitive and resistant categories. […] To identify gene expression patterns that can predict sensitivity to ABT-263, as well as genes that might contribute to resistance to treatment, RNA expression profiles for a panel of SCLC cell lines were determined, as well as a panel of leukemia and lymphoma cell lines. […]

[1] = 10% human serum, 48 hours, read-out: EC50
[2] = Homo sapiens, read-out: Response Designation

Work on CC1(C)CCC(c2ccc(Cl)cc2)=C(CN2CCN(c3ccc(C(=O)NS(=O)(=O)c4ccc(N[C@H](CCN5CCOCC5)CSc5ccccc5)c(S(=O)(=O)C(F)(F)F)c4)cc3)CC2)C1 [ABT-263, N-(4-(4-((2-(4-chlorophenyl)-5,5-dimethyl-1-cyclohex-1-en-1-yl)methyl)piperazin-1-yl)benzoyl)-4-(((1R)-3-(morpholin-4-yl)-1-((phenylsulfanyl)methyl)propyl)amino)-3-((trifluoromethyl)sulfonyl)benzenesulfonamide] yielded a pEC50 (SuPB15; Homo sapiens, SUP-B15, read-out: Response Designation) of no less than 5.32, a pEC50 (SuPB15; SUP-B15, 10% human serum, 48 hours, read-out: EC50) of 6.59 and a pEC50 (RPMI 8226; [1]) of 5.82. For the same molecule, the pEC50 (RPMI 8226; [2]) was no less than 5.32, the pEC50 (NCI-H196; [1]) was 4.41 and the pEC50 (NCI-H196; [2]) was less than 5.39. For the same molecule, the pEC50 (NCI-H740; [1]) was less than 5.00, the pEC50 (NCI-H740; [2]) was less than 5.39 and the pEC50 (NCI-H2107; [1]) was 6.52. It also gave a pEC50 (NCI-H2107; [2]) of no less than 5.39, a pEC50 (DMS 53; [1]) of 5.80 and a pEC50 (DMS 53; [2]) of no less than 5.39. The pEC50 (NCI-H209; [1]) was 5.94, the pEC50 (NCI-H209; [2]) was no less than 5.39 and the pEC50 (NCI-H1688; [1]) was 5.09. For the same molecule, the pEC50 (NCI-H1688; [2]) was less than 5.39, the pEC50 (NCI-H146; [1]) was 6.96 and the pEC50 (NCI-H146; [2]) was no less than 5.39. It also gave a pEC50 (NCI-H128; [1]) of 5.60, a pEC50 (NCI-H128; [2]) of no less than 5.39 and a pEC50 (NCI-H446; [1]) of 5.39. For the same molecule, the pEC50 (NCI-H446; [2]) was no less than 5.39, the pEC50 (NCI-H526; [1]) was 4.90 and the pEC50 (NCI-H526; [2]) was less than 5.39. It also gave a pEC50 (NCI-1417; [1]) of 6.44, a pEC50 (NCI-1417; [2]) of no less than 5.39 and a pEC50 (SW 1271; Homo sapiens, SW1271, read-out: Response Designation) of less than 5.39. It also gave a pEC50 (SW 1271; SW1271, 10% human serum, 48 hours, read-out: EC50) of 4.47, a pEC50 (NCI-H345; [1]) of 5.67 and a pEC50 (NCI-H345; [2]) of no less than 5.39. The pEC50 (NCI-H889; [1]) was 6.85, the pEC50 (NCI-H889; [2]) was no less than 5.39 and the pEC50 (DMS 114; [1]) was 4.47. The pEC50 (DMS 114; [2]) was less than 5.39, the pEC50 (NCI-211; [1]) was 6.39 and the pEC50 (NCI-211; [2]) was no less than 5.39. The “SCLC cell lines categorized as being sensitive” value (SCLC cell lines) was 26 out of 36.
